Test results reported in patent US4423056A, “5(Aminomethyl)-4,5,6,7-tetrahydro[d]thiazole containing compositions for and medical use in treating circulatory insufficiencies” (Laboratoires Jacques Logeais, priority 1979, dated 1983).
Like-named read-outs stand apart in the source and are kept apart here.

Assays:
[1] = Acute toxicity in mice, LD50 oral and intraperitoneal; settings: mouse, in vivo
Text: Most of the compounds of the formula (I) have low toxicity, as is apparent from following Table II in which are given the LD50 per os and i.p. in mice.

[2] = system: collateral arteries; test: Acute occlusion of the femoral artery: resistance of the collateral arteries, systemic blood pressure, tissue perfusion pressure; type: in vivo, dogs
Method: Thus, with some of the compounds, there was noted an increase of the arterial rate of flow from as low a dosage as 0.1-0.5 mg/kg i.v.

[3] = ip, read-out: Acute toxicity, intraperitoneal route LD50
[4] = po, per os, read-out: Acute toxicity, oral route LD50

## NCC1CCc2ncsc2C1 (stereo not drawn) [Example 8, 6-Aminomethyl-4,5,6,7-tetrahydro-benzo[d]thiazole]
[1]; [3]
  LD50: > 200 mg/kg
[1]; [4]
  LD50: > 200 mg/kg

## CNCC1CCCc2scnc21 (stereo not drawn) [Example 2, 4-(N-Methylaminomethyl)-4,5,6,7-tetrahydro-benzo[d]thiazole]
[1]; [3]
  LD50: ≥ 200 mg/kg
[1]; [4]
  LD50: > 200 mg/kg

## CCCCc1nc2c(s1)CCC(CNC)C2 (stereo not drawn) [Example 12, 2-n-Butyl-5-(N-methylaminomethyl)-4,5,6,7-tetrahydrobenzo[d]thiazole]
[1]; [3]
  LD50: 140 mg/kg
[1]; [4]
  LD50: > 200 mg/kg

## Cc1nc2c(s1)CC(CN)CC2 (stereo not drawn) [Example 17, 2-methyl-6-aminomethyl-4,5,6,7-tetrahydro-benzo[d]thiazole]
[1]; [3]
  LD50: > 200 mg/kg
[1]; [4]
  LD50: > 200 mg/kg

## CCCNCC1CCc2ncsc2C1 (stereo not drawn) [Example 10, 6-(N-n-Propylaminomethyl)-4,5,6,7-tetrahydro-benzo[d]thiazole]
[1]; [3]
  LD50: 190 mg/kg
[1]; [4]
  LD50: > 200 mg/kg

## CCCCNCC1CCCc2sc(C)nc21 (stereo not drawn) [Example 18, 2-methyl-4-(N--n-butylamino-methyl)-4,5,6,7-tetrahydro-benzo[d]thiazole]
[1]; [3]
  LD50: 58 mg/kg
[1]; [4]
  LD50: > 200 mg/kg

## CCCCNCC1CCc2sc(C)nc2C1 (stereo not drawn) [Example 20]
[1]; [3]
  LD50: 58 mg/kg
[1]; [4]
  LD50: 145 mg/kg

## CNCC1CCc2ncsc2C1 (stereo not drawn) [Example 16, 6-(N--methylaminomethyl)-4,5,6,7-tetrahydro-benzo[d]thiazole]
[1]; [3]
  LD50: 75 mg/kg
[1]; [4]
  LD50: 170 mg/kg

## Cc1nc2c(s1)CCC(CNC(C)C)C2 (stereo not drawn) [Example 19, 2-methyl-5-(N--isopropylamino-methyl)-4,5,6,7-tetrahydro-benzo[d]thiazole]
[1]; [3]
  LD50: > 200 mg/kg
[1]; [4]
  LD50: > 200 mg/kg

## NCC1CCCc2scnc21 (stereo not drawn) [Example 1, 4-Aminomethyl-4,5,6,7-tetrahydro-benzo[d]thiazole]
[1]; [3]
  LD50: 140 mg/kg
[1]; [4]
  LD50: > 200 mg/kg

## CCNCC1CCc2nc(CC)sc2C1 (stereo not drawn) [Example 9, 2-Ethyl-6-(N-ethylaminomethyl)-4,5,6,7-tetrahydrobenzo[d]thiazole]
[1]; [3]
  LD50: 120 mg/kg
[1]; [4]
  LD50: > 200 mg/kg

## NCC1CCc2scnc2C1 (stereo not drawn) [Example 14, 5-aminomethyl-4,5,6,7-tetrahydro-benzo[d]thiazole]
[1]; [3]
  LD50: > 200 mg/kg
[1]; [4]
  LD50: ≥ 200 mg/kg

## CNCC1CCc2sc(C(C)C)nc2C1 (stereo not drawn) [Example 13, 2-Isopropyl-5-(N-methylaminomethyl)-4,5,6,7-tetrahydrobenzo[d]thiazole]
[1]; [3]
  LD50: 140 mg/kg
[1]; [4]
  LD50: > 200 mg/kg

## Cc1nc2c(s1)CCC(CN)C2 (stereo not drawn) [Example 15, 2-methyl-5-aminomethyl-4,5,6,7-tetrahydro-benzo[d]thiazole]
[1]; [3]
  LD50: > 200 mg/kg
[1]; [4]
  LD50: > 200 mg/kg

## CNCC1CCc2sc(C)nc2C1 (stereo not drawn) [Example 6, 2-Methyl-5-(N-methylaminomethyl)-4,5,6,7-tetrahydrobenzo[d]thiazole]
[2]
  decrease of the resistance of the collateral arteries: marked decrease
  effect on systemic blood pressure: without substantially affecting
  effect on tissue perfusion pressure: without substantially affecting
[1]; [4]
  LD50: > 200 mg/kg

## CCCCc1nc2c(s1)CCCC2CNC (stereo not drawn) [Example 11, 2-n-Butyl-4-(N-methylaminomethyl)4,5,6,7-tetrahydro-benzo[d]thiazole]
[2]
  decrease of the resistance of the collateral arteries: marked decrease
  effect on systemic blood pressure: without substantially affecting
  effect on tissue perfusion pressure: without substantially affecting
[1]; [3]
  LD50: 58 mg/kg
[1]; [4]
  LD50: ≥ 200 mg/kg

## Cc1nc2c(s1)CCCC2CN (stereo not drawn) [Example 3, 2-Methyl-4-aminomethyl-4,5,6,7-tetrahydro-benzo[d]thiazole]
[1]; [4]
  LD50: > 200 mg/kg

## CNCC1CCc2scnc2C1 (stereo not drawn) [Example 5, 5-(N-Methylaminomethyl)-4,5,6,7-tetrahydro-benzo[d]thiazole]
[1]; [3]
  LD50: > 200 mg/kg
[1]; [4]
  LD50: > 200 mg/kg

## CNCC1CCc2nc(C)sc2C1 (stereo not drawn) [Example 7, 2-Methyl-6-(N-methylaminomethyl)-4,5,6,7-tetrahydrobenzo[d]thiazole]
[1]; [3]
  LD50: > 200 mg/kg
[1]; [4]
  LD50: > 200 mg/kg
